Experimental data: PubChem BioAssay (NCI)
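Cells were grown in 96-well plates and exposed to each compound for 48 hours at five concentrations; endpoints were interpolated linearly between bracketing concentrations, or set to the highest concentration if not reached. GI50 = concentration required for 50% inhibition of growth. TGI denotes the concentration required for complete inhibition of growth.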

How the values were obtained:
Assay in all cases: NCI tumour cell line growth inhibition, 48 h
786-0 renal = system: 786-0 renal
A498 renal = system: A498 renal
A549 NSCLC = system: A549 NSCLC
ACHN renal = system: ACHN renal
BT-549 breast = system: BT-549 breast
CAKI-1 renal = system: CAKI-1 renal
CCRF-CEM leukemia = system: CCRF-CEM leukemia
COLO 205 colon = system: COLO 205 colon
DU-145 prostate = system: DU-145 prostate
EKVX NSCLC = system: EKVX NSCLC
HCC-2998 colon = system: HCC-2998 colon
HCT-116 colon = system: HCT-116 colon
HCT-15 colon = system: HCT-15 colon
HL-60(TB) leukemia = system: HL-60(TB) leukemia
HOP-62 NSCLC = system: HOP-62 NSCLC
HOP-92 NSCLC = system: HOP-92 NSCLC
HS 578T breast = system: HS 578T breast
HT29 colon = system: HT29 colon
IGROV1 ovarian = system: IGROV1 ovarian
K-562 leukemia = system: K-562 leukemia
KM12 colon = system: KM12 colon
LOX IMVI melanoma = system: LOX IMVI melanoma
M14 melanoma = system: M14 melanoma
MALME-3M melanoma = system: MALME-3M melanoma
MCF7 breast = system: MCF7 breast
MDA-MB-231 breast = system: MDA-MB-231 breast
MDA-MB-435 = system: MDA-MB-435
MDA-MB-468 breast = system: MDA-MB-468 breast
MOLT-4 leukemia = system: MOLT-4 leukemia
NCI-H226 lung = system: NCI-H226 lung
NCI-H23 lung = system: NCI-H23 lung
NCI-H460 lung = system: NCI-H460 lung
NCI-H522 lung = system: NCI-H522 lung
NCI/ADR-RES ovarian = system: NCI/ADR-RES ovarian
OVCAR-3 ovarian = system: OVCAR-3 ovarian
OVCAR-4 ovarian = system: OVCAR-4 ovarian
OVCAR-5 ovarian = system: OVCAR-5 ovarian
OVCAR-8 ovarian = system: OVCAR-8 ovarian
PC-3 prostate = system: PC-3 prostate
RPMI-8226 leukemia = system: RPMI-8226 leukemia
RXF 393 renal = system: RXF 393 renal
SF-268 CNS = system: SF-268 CNS
SF-295 CNS = system: SF-295 CNS
SF-539 CNS = system: SF-539 CNS
SK-MEL-2 melanoma = system: SK-MEL-2 melanoma
SK-MEL-28 melanoma = system: SK-MEL-28 melanoma
SK-MEL-5 melanoma = system: SK-MEL-5 melanoma
SK-OV-3 ovarian = system: SK-OV-3 ovarian
SN12C renal = system: SN12C renal
SNB-19 CNS = system: SNB-19 CNS
SNB-75 CNS = system: SNB-75 CNS
SR leukemia = system: SR leukemia
SW-620 colon = system: SW-620 colon
T-47D breast = system: T-47D breast
TK-10 renal = system: TK-10 renal
U251 CNS = system: U251 CNS
UACC-257 melanoma = system: UACC-257 melanoma
UACC-62 melanoma = system: UACC-62 melanoma
UO-31 renal = system: UO-31 renal

Molecule `COc1cc2c3c(n(CCCNCCO)c(=O)c2cc1OC)-c1nc2c(cc1C3=O)OCO2` has a GI50 (786-0 renal) of 2.43 µM, a TGI (786-0 renal) of 11.8 µM and a GI50 (A498 renal) of 13.4 µM. For the same molecule, the TGI (A498 renal) was 27.2 µM, the GI50 (A549 NSCLC) was 6.72 µM and the TGI (A549 NSCLC) was 21.6 µM. It also gave a GI50 (ACHN renal) of 3.46 µM, a TGI (ACHN renal) of 14 µM and a GI50 (BT-549 breast) of 6.31 µM. The TGI (BT-549 breast) was 20.5 µM, the GI50 (CAKI-1 renal) was 2.39 µM and the TGI (CAKI-1 renal) was 16.5 µM. It also gave a GI50 (CCRF-CEM leukemia) of 0.262 µM, a TGI (CCRF-CEM leukemia) of 1.86 µM and a GI50 (COLO 205 colon) of 5.88 µM. For the same molecule, the TGI (COLO 205 colon) was 21.9 µM, the GI50 (DU-145 prostate) was 2.71 µM and the TGI (DU-145 prostate) was 14.1 µM. The GI50 (EKVX NSCLC) was 7.47 µM, the TGI (EKVX NSCLC) was 21.2 µM and the GI50 (HCC-2998 colon) was 2.14 µM. It also gave a TGI (HCC-2998 colon) of 13.2 µM, a GI50 (HCT-116 colon) of 1.25 µM and a TGI (HCT-116 colon) of 2.67 µM. For the same molecule, the GI50 (HCT-15 colon) was 9.17 µM, the TGI (HCT-15 colon) was 27.9 µM and the GI50 (HL-60(TB) leukemia) was 0.64 µM. The TGI (HL-60(TB) leukemia) was 12.2 µM, the GI50 (HOP-62 NSCLC) was 0.416 µM and the TGI (HOP-62 NSCLC) was 4.48 µM. For the same molecule, the GI50 (HOP-92 NSCLC) was 9.2 µM, the TGI (HOP-92 NSCLC) was 23.3 µM and the GI50 (HS 578T breast) was 11.6 µM. It also gave a TGI (HS 578T breast) of 31.6 µM, a GI50 (HT29 colon) of 2.69 µM and a TGI (HT29 colon) of 11.3 µM. It also gave a GI50 (IGROV1 ovarian) of 11.4 µM, a TGI (IGROV1 ovarian) of 26.2 µM and a GI50 (K-562 leukemia) of 1.56 µM. It also gave a TGI (K-562 leukemia) of 15 µM, a GI50 (KM12 colon) of 14.2 µM and a TGI (KM12 colon) of 33.2 µM. For the same molecule, the GI50 (LOX IMVI melanoma) was 0.534 µM, the TGI (LOX IMVI melanoma) was 1.98 µM and the GI50 (M14 melanoma) was 4.35 µM. The TGI (M14 melanoma) was 16.8 µM, the GI50 (MALME-3M melanoma) was 5.08 µM and the TGI (MALME-3M melanoma) was 19.6 µM. For the same molecule, the GI50 (MCF7 breast) was 0.256 µM, the TGI (MCF7 breast) was 8.62 µM and the GI50 (MDA-MB-231 breast) was 11.3 µM. For the same molecule, the TGI (MDA-MB-231 breast) was 24.5 µM, the GI50 (MDA-MB-435) was 8.89 µM and the TGI (MDA-MB-435) was 22.5 µM. For the same molecule, the GI50 (MDA-MB-468 breast) was 1.41 µM, the TGI (MDA-MB-468 breast) was 3.21 µM and the GI50 (MOLT-4 leukemia) was 0.364 µM. For the same molecule, the TGI (MOLT-4 leukemia) was 34.8 µM, the GI50 (NCI-H226 lung) was 1.54 µM and the TGI (NCI-H226 lung) was 6.62 µM. For the same molecule, the GI50 (NCI-H23 lung) was 0.582 µM, the TGI (NCI-H23 lung) was 3.27 µM and the GI50 (NCI-H460 lung) was 1.22 µM. For the same molecule, the TGI (NCI-H460 lung) was 11.8 µM, the GI50 (NCI-H522 lung) was 0.886 µM and the TGI (NCI-H522 lung) was 3.04 µM. The GI50 (NCI/ADR-RES ovarian) was 58.1 µM, the TGI (NCI/ADR-RES ovarian) was over 100 µM and the GI50 (OVCAR-3 ovarian) was 5.65 µM. It also gave a TGI (OVCAR-3 ovarian) of 20.8 µM, a GI50 (OVCAR-4 ovarian) of 13 µM and a TGI (OVCAR-4 ovarian) of 49.5 µM. For the same molecule, the GI50 (OVCAR-5 ovarian) was 4.39 µM, the TGI (OVCAR-5 ovarian) was 15.4 µM and the GI50 (OVCAR-8 ovarian) was 3.61 µM. The TGI (OVCAR-8 ovarian) was 17.9 µM, the GI50 (PC-3 prostate) was 3.06 µM and the TGI (PC-3 prostate) was 19.1 µM. For the same molecule, the GI50 (RPMI-8226 leukemia) was 2.54 µM, the TGI (RPMI-8226 leukemia) was 14.8 µM and the GI50 (RXF 393 renal) was 1.83 µM. For the same molecule, the TGI (RXF 393 renal) was 7.21 µM, the GI50 (SF-268 CNS) was 3.24 µM and the TGI (SF-268 CNS) was 19.9 µM. For the same molecule, the GI50 (SF-295 CNS) was 0.702 µM, the TGI (SF-295 CNS) was 12 µM and the GI50 (SF-539 CNS) was 0.996 µM. The TGI (SF-539 CNS) was 3.24 µM, the GI50 (SK-MEL-2 melanoma) was 17.7 µM and the TGI (SK-MEL-2 melanoma) was 33 µM. It also gave a GI50 (SK-MEL-28 melanoma) of 13.5 µM, a TGI (SK-MEL-28 melanoma) of 26.9 µM and a GI50 (SK-MEL-5 melanoma) of 1.54 µM. It also gave a TGI (SK-MEL-5 melanoma) of 10.5 µM, a GI50 (SK-OV-3 ovarian) of 3.27 µM and a TGI (SK-OV-3 ovarian) of 12.4 µM. For the same molecule, the GI50 (SN12C renal) was 3.94 µM, the TGI (SN12C renal) was 16.4 µM and the GI50 (SNB-19 CNS) was 2.52 µM. The TGI (SNB-19 CNS) was 14.6 µM, the GI50 (SNB-75 CNS) was 0.83 µM and the TGI (SNB-75 CNS) was 28.2 µM. The GI50 (SR leukemia) was 0.624 µM, the TGI (SR leukemia) was 11.3 µM and the GI50 (SW-620 colon) was 2.01 µM. The TGI (SW-620 colon) was 16.8 µM, the GI50 (T-47D breast) was 1.13 µM and the TGI (T-47D breast) was 12.9 µM. It also gave a GI50 (TK-10 renal) of 19 µM, a TGI (TK-10 renal) of 46 µM and a GI50 (U251 CNS) of 0.82 µM. The TGI (U251 CNS) was 10.7 µM, the GI50 (UACC-257 melanoma) was 15.4 µM and the TGI (UACC-257 melanoma) was 31.2 µM. The GI50 (UACC-62 melanoma) was 2.38 µM, the TGI (UACC-62 melanoma) was 12.8 µM and the GI50 (UO-31 renal) was 7.47 µM. It also gave a TGI (UO-31 renal) of 21.7 µM.
